Key:
[1] = antagonist effect on the stimulating effect of scopolamine (motor activity), ESE series; format: in vivo; settings: scopolamine at the dose of 1 mg/kg
Experimental: This is countered by the oral administration of 2.5 mg of ESE001, ESE002, ESE003, ESE004.

[2] = antagonist activity against the stimulating effect of an anticholinergic substance (scopolamine); format: in vivo, mice SWISS; settings: scopolamine subcutaneously injected, 1mg/kg, mice
Experimental: As the central anticholinergic stimulating agent the scopolamine was used subcutaneously injected to groups of 10 mice SWISS ([…]) at the dose of 1mg/kg.
At this dose the substance under question caused in all the animals a marked increase (80-100%) of the spontaneous motility, evaluated according to the above described method .

[3] = tested on: acetylcholinesterase activity (AchE); assay: in vivo anticholinesterase activity (blood and brain, Ellman colorimetric method); design: species or system Wistar male rats; settings: rats, oral, 1.5 to 4 mg/kg; sacrificed after 20, 60 and 120 minutes
Experimental: The derivatives, under question and physostigmine suspended in 2% carboxymethylcellulose, were orally administered to groups of Wistar male rats (average weight about 250 g).
On the base of the obtained results in preliminary trials, the doses utilized for the comparison were comprised beween 0.2 and 0.4 mg/kg for physostigmine and between 1.5 and 4 mg/kg for the eseroline derivatives under question.
The groups of treated rats were sacrificed after 20, 60, and 120 minutes and the blood and the brain of each animal were immediately cooled to 0°C and maintained at this temperature during the successive treatments.
The acetylcholinesterase activity (AchE) was determined by using the Ellman et al's quick colorimetric method (Biochem. Pharmacol., 7, 88, 1961) and it was expressed as enzymatic inhibition percentage.

mouse [4] = assay: spontaneous motility (Dews' method modified according to Carminati); format: in vivo, mouse (SWISS strain)
Description: The Dews' method was utilized, as modified according to Carminati (Arch. Int. Pharmacodyn. et Thér. 181, 68,1969).

[5] = effect on the succinylcholine curarization duration (corneal reflex); format: in vivo; settings: i.v. administration of 0.6 mg/kg, rabbit; compared with physostigmine
mouse [6] = assay: acute toxicity, oral LD50 in the mouse; settings: oral, suspension in 2% carboxymethylcellulose, observation period 7 days
Description: The mouse was used (Swiss strain having the average weight of the male mice being 26 g and 22 g that of the female mice: 5+5 animals per dose, observation period: 7days) The oral LD50 (suspension in 2% carboxymethylcellulose) were reported hereinbelow: Tab.2

Chain of acetylcholinesterase activity (AchE) (P37136 32-574 limits assumed): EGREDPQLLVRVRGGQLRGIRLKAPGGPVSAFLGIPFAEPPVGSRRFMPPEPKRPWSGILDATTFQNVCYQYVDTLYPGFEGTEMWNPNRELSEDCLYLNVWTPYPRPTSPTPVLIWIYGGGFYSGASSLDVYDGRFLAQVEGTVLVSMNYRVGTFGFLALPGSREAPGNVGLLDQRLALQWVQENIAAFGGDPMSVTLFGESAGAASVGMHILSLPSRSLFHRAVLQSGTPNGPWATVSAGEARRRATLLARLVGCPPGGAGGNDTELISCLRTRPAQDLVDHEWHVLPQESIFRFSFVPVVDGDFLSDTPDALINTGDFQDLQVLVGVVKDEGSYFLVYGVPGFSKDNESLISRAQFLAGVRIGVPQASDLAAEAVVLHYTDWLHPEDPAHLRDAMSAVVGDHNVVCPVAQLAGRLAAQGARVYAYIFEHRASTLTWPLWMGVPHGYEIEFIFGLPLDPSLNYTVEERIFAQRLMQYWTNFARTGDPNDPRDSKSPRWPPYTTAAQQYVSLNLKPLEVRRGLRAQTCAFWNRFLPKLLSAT

Compound | increase in motor activity (stimulating effect) [1] [%] | increase of the spontaneous motility [2] | inhibitory activity of the acetylcholinesterase [3] | reduction of spontaneous motility (mouse [4]; oral, starting from minimal doses of 3.5-5 mg/kg, on average) [%] | minimal doses causing a marked reduction of spontaneous motility (mouse [4]; orally administered) [mg/kg] | anticholinesterase effect with respect to the succinylcholine curarizing action [5] | LD50 in the mouse (mouse [6])
CN1[C@@H]2C[C@@H](OC(=O)[C@H](CO)c3ccccc3)C[C@H]1[C@@H]1O[C@@H]12 [scopolamine, reference compound] | 100 | 80-100% | – | – | – | – | –
eseroline L-prolylpyrrolidinamide [MGT2] | – | – | evident dose dipendent and reversible inhibitory activity | ~-39 | 3.5 to 5 | the same anticholinesterase effect | 342,2 ± 11,16 mg/kg

— patent EP0550007A2, “Eseroline derivatives having anticholinesterase activity, a process for their preparation and pharmaceutical compositions containing them” (priority 1991, dated 1993)
